# Literature values in patent publication US20230065168A1, “[…] COMBINATION WITH A REPLICATION-DEFICIENT TYPE 5 […] EXPRESSION OF INTERFERON GAMMA FOR THE TREATMENT OF SKIN CANCER” (ASCEND BIOPHARMACEUTICALS LTD, priority 2021, published 2023).
compound,measurement,setting,value
"CS(=O)(=O)c1ccc(C(=O)Nc2ccc(Cl)c(-c3ccccn3)c2)c(Cl)c1 [vismodegib, 2-Chloro-N-(4-chloro-3-(pyridin-2-yl)phenyl)-4-(methylsulfonyl)benzamide]",time at which adverse events generally begin to manifest,oral daily treatment,6-8 weeks
same,adverse events commonly associated with administration,patients with advanced BCC,"muscle spasms, alopecia, dysgeusia, weight loss, fatigue, nausea, diarrhea, decreased appetite, constipation, arthralgia, vomiting, and ageusia"
